What is called IC50 is the concentration at which inhibition is half-maximal. For orientation: Ki means the dissociation constant of the complex between target and ligand, obtained from inhibition or displacement.

The structures appear in SMILES notation.

In experiment [1] the target is T1, Acetylcholinesterase (Homo sapiens, UniProt P22303). In words: Inhibition of human recombinant AChE using acetylthiocholine iodide as substrate preincubated for 30 mins followed by substrate addition and measured for 60 mins by Ellman's method. (In general: DTNB colorimetry detects thiols as they appear.)
T1 sequence (P22303 whole entry): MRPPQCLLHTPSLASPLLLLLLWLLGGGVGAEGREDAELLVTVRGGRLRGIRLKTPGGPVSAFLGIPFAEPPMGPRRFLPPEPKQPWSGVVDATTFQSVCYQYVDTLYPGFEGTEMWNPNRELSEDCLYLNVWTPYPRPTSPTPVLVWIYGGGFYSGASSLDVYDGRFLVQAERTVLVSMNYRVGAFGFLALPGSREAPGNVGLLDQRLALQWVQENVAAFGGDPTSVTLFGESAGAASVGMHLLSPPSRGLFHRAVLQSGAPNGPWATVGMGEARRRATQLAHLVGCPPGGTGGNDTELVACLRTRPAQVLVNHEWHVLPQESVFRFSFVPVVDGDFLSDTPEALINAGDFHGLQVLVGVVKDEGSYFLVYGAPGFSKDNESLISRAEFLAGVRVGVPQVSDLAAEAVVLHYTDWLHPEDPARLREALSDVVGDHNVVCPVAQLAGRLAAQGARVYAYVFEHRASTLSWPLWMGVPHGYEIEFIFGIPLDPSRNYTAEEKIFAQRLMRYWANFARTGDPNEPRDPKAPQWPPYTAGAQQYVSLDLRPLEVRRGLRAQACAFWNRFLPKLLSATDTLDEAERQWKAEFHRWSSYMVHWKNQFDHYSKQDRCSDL
In experiment [2] the target is T1, Acetylcholinesterase. Nature of the experiment: Inhibition of AChE (unknown origin) using acetylthiocholine iodide as substrate preincubated for 15 min followed by substrate addition and measured after 60 min by Ellman's method.
Experiment [3] has as its target T2, Cholinesterase (Homo sapiens, UniProt P06276). In words: Inhibition of human BChE using butyrylthiocholineiodide as substrate measured for 30 mins by Ellman's method.
Experiment [4] deals with T1, Acetylcholinesterase. Nature of the experiment: Inhibition of human AChE by Ellman's method.
In experiment [5] the target is T3, Cholinesterase (Equus caballus, UniProt P81908). Nature of the experiment: Inhibition of equine BuChE.
T3 sequence (P81908 whole entry): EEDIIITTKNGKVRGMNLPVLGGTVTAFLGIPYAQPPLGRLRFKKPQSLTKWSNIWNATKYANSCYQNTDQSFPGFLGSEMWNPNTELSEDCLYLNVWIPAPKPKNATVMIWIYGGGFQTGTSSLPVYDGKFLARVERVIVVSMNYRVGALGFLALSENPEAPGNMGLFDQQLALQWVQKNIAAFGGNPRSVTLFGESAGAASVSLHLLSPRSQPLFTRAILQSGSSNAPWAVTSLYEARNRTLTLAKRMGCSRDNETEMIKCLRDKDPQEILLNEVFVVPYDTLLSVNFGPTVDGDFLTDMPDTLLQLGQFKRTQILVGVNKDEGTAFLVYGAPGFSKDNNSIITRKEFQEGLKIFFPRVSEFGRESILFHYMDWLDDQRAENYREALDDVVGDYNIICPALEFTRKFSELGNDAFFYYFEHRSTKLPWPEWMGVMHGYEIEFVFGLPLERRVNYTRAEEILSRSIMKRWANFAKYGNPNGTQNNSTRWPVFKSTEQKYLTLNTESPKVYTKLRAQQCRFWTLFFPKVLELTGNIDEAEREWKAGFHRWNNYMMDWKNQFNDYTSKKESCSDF
Experiment [6] concerns the target T1, Acetylcholinesterase. In words: Inhibition of human AChE using acetylthiocholine iodide as substrate by Ellman's method.
In experiment [7] the target is T2, Cholinesterase. Nature of the experiment: Inhibition of human BChE using butyrylthiocholineiodide as substrate by Ellman's method.
Experiment [8] in a line: Inhibition of equine serum BChE using butyrylthiocholine iodide as substrate incubated for 30 mins by Ellman's method. Also noted: species or system Equus caballus.
The target in experiment [9] is Indoleamine 2,3-dioxygenase 1 (Homo sapiens, UniProt P14902). Nature of the experiment: Inhibition of IDO1 (unknown origin).
Chain of Indoleamine 2,3-dioxygenase 1 (P14902 whole entry): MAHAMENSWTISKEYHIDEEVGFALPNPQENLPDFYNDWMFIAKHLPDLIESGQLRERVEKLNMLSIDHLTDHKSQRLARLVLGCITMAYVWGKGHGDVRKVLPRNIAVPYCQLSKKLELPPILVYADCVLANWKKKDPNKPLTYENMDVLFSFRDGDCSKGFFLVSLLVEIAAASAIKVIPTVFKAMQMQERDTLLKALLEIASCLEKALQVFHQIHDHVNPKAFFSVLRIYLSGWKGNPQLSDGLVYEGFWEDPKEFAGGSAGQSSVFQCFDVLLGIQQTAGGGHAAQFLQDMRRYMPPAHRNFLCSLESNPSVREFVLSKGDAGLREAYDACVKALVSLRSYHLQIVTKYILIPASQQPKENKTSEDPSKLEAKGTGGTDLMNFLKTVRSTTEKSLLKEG
The target of experiment [10] is T4, Amine oxidase [flavin-containing] A (Homo sapiens, UniProt P21397).
T4 sequence (P21397 whole entry): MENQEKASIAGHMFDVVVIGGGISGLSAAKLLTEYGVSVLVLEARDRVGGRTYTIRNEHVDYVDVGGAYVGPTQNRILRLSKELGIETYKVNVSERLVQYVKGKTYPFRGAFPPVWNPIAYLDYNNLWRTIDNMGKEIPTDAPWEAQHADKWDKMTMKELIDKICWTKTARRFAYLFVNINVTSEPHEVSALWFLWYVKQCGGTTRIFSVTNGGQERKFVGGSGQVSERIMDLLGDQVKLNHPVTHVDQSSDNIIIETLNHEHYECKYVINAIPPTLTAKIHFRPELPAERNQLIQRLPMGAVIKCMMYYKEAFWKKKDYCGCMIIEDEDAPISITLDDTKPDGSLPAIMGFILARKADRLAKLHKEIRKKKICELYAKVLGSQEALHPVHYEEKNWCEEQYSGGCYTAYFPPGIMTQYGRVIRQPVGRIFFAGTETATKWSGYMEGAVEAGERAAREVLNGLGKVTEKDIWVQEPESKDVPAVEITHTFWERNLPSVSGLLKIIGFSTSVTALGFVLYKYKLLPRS
Nature of the experiment: Inhibition of human recombinant MAO-A using kynuramine as substrate by incubated for 75 mins by spectrophotometric analysis.

Experiment [11] deals with T5, Amine oxidase [flavin-containing] B (Homo sapiens, UniProt P27338).
T5 sequence (P27338 whole entry): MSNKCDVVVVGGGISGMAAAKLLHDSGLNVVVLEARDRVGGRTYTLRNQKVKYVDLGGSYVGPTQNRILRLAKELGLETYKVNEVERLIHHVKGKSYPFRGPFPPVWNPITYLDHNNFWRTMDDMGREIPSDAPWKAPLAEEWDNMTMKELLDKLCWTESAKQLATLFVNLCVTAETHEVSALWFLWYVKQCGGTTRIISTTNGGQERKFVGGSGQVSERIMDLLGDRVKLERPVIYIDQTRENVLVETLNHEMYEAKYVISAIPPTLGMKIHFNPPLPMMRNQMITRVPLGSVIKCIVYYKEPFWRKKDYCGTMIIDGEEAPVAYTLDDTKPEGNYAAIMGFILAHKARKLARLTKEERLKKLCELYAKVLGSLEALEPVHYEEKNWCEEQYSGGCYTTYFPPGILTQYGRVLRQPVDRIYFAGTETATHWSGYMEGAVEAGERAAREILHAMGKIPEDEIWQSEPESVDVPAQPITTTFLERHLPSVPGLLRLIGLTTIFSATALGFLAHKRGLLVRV
Nature of the experiment: Inhibition of human recombinant MAO-B using benzylamine as substrate by fluorescence based analysis.

For experiment [12], the target named is Acetylcholinesterase (Electrophorus electricus, UniProt O42275). In words: Inhibition of electric eel AChE using acetylthiocholine iodide as substrate by Ellman's method.
Chain of Acetylcholinesterase (Electrophorus electricus, UniProt O42275) (O42275 whole entry): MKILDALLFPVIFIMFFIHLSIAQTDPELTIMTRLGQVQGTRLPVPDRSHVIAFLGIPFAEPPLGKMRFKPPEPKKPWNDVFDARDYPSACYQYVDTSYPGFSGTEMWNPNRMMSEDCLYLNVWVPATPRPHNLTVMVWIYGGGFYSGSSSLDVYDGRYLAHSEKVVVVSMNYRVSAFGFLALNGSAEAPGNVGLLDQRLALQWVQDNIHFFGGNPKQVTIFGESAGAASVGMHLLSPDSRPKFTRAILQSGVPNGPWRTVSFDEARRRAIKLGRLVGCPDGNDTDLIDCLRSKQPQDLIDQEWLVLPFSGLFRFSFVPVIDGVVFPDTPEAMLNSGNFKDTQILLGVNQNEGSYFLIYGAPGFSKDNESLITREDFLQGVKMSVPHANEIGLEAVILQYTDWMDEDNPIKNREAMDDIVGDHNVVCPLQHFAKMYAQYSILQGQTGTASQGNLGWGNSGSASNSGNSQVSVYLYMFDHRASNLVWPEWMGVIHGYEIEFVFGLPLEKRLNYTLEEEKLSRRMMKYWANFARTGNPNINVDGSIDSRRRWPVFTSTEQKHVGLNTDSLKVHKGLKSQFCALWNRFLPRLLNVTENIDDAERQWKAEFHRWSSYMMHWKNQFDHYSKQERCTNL
Experiment [13] in a line: Inhibition of equine serum BChE using butyrylthiocholine iodide as substrate by measured after 30 mins Ellman's method. The format is cell-free, Equus caballus.
Experiment [14] addresses T2, Cholinesterase. Nature of the experiment: Inhibition of BChE (unknown origin) incubated for 10 mins by Ellman's method.
Experiment [15] deals with T3, Cholinesterase. In words: Inhibition of equine serum BuChE using S-butyrylthiocholine chloride as substrate by Ellman's method. The format is cell-free.
The target of experiment [16] is T1, Acetylcholinesterase. Nature of the experiment: Inhibition of AChE (unknown origin).
Experiment [17] concerns the target T2, Cholinesterase. In words: Inhibition of BChE (unknown origin).
Experiment [18] has as its target T1, Acetylcholinesterase. Nature of the experiment: Binding affinity to AChE (unknown origin) assessed as inhibition constant.
The target of experiment [19] is T2, Cholinesterase. In words: Binding affinity to BChE (unknown origin) assessed as inhibition constant.

T2 sequence (P06276 whole entry): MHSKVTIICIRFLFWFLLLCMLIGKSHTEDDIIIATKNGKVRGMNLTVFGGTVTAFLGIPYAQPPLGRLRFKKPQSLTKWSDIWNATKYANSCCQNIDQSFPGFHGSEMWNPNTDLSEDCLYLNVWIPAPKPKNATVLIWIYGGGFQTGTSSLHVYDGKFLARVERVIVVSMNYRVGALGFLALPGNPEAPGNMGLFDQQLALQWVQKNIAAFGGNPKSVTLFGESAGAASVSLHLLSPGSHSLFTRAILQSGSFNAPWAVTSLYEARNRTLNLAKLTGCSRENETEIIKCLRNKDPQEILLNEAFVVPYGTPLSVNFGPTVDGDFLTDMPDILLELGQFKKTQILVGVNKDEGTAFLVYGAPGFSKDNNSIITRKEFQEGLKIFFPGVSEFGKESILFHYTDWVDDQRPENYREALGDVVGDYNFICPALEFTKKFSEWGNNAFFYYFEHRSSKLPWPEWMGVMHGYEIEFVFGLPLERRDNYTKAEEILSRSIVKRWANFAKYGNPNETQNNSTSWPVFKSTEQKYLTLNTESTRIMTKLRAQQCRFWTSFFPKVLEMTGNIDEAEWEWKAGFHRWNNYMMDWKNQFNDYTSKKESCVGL

As to `Clc1ccc(C(Cn2ccnc2)OCc2csc3c(Cl)cccc23)c(Cl)c1` (centres undefined) [SERTACONAZOLE], at Acetylcholinesterase [1], the 50% inhibitory concentration (IC50) amounted to 100 nM.
Regarding `c1ccc(-c2nn(-c3ccccc3)cc2-c2nc(-c3ccccc3)c(-c3ccccc3)n2-c2ccccc2)cc1`, the results for the IC50 against Acetylcholinesterase [2] and against Cholinesterase [3] were 41.2 µM and 350 nM, respectively.
As to `Nc1c2c(nc3ccccc13)CCC2`, the values for the IC50 against Acetylcholinesterase [4] and against Cholinesterase [5] were 4.4 µM and 270 nM, respectively.
`Cc1cc2c(cc1C)[n+](Cc1ccccc1C)cn2C(c1ccccc1)c1ccccc1`: the results for the concentration for half-maximal inhibition (IC50) at Acetylcholinesterase [6] and against Cholinesterase [7] were 4.19 µM and 150 nM, respectively.
Consider `COc1cccc(COC(Cn2ccnc2)c2ccc(F)c(F)c2)c1` (centres undefined), for which the concentration for half-maximal inhibition (IC50) in experiment [8] worked out at 13.2 µM; in experiment [9] it was 22.8 µM.
As for `COc1cccc(COc2ccc(C(C)=O)c(OCc3cn(CCc4c[nH]c5ccccc45)nn3)c2)c1`, the half-maximal inhibitory concentration (IC50) was 74.7 µM in experiment [10], 3.71 µM in experiment [11], above 100 µM against Acetylcholinesterase [12] and 920 nM in [13].
Consider `CN1CCc2c(c3cc(F)ccc3n2CCNC23CC4CC(C)(CC(C)(C4)C2)C3)C1`, for which the IC50 was determined as 39.7 µM against Cholinesterase [14] and 720 nM on Cholinesterase [15].
In the case of `Cc1ccc(/C=N/NC(=O)Cn2c(=O)sc3ccccc32)s1`, the IC50 against Acetylcholinesterase [16] was above 40 µM; against Cholinesterase [17], 1380 nM.
Take `O=C(Oc1cc(OC(=O)N2CCCCC2)cc(C(O)CN2CCCCC2)c1)N1CCCCC1` (centres undefined): the Ki was 6.93 µM at Acetylcholinesterase [18] and 11 nM at Cholinesterase [19].
